In US10941157B2, “Pesticidal compositions and uses thereof” (Gilead Apollo, LLC, priority 2015, dated 2021):
≈ marks a conversion by molar mass, not a printed value. Where two headings read alike, the source gives them in different places.

Key:
Format in all cases: cell-based
Botrtyis cinerea (Bc) = test: In vitro pathogen growth inhibition assay, Bc; settings: 48 h
How it was run: (§1)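 Value reported is the compound concentration reaching ≥90% growth inhibition, from OD readings at 24 and 48 h after blank subtraction, confirmed visually. Inoculum was spores diluted in 17% V8 medium, except Rs, using 1.5 mm mycelial plugs in ¼ PDB; actual compound concentration corrected via OD600.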

[1] = test system: Collectotrichum graminicola (Cg); test: In vitro pathogen growth inhibition assay, Cg; settings: 48 h
How it was run: as §1

Diplodia maydis (Dm) = test: In vitro pathogen growth inhibition assay, Dm; settings: Stenocarpella maydis, 48 h
How it was run: (§2)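 Spores in 17% V8 liquid medium, or 1.5 mm Rs mycelial plugs in ¼ PDB, incubated with compound; final concentration checked by OD600 for precipitation. OD readings at 24 and 48 h, blank-subtracted, plus visual ratings; value is concentration giving ≥90% growth inhibition.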

[2] = test system: Fusarium moniliforme (Fm); test: In vitro pathogen growth inhibition assay, Fm; settings: Fusarium verticillioides
How it was run: as §1

[3] = test system: Fusarium virguliforme (Fv); test: In vitro pathogen growth inhibition assay, Fv
How it was run: as §2

[4] = test system: Phytophthora capsici (Pc); test: In vitro pathogen growth inhibition assay, Pc; settings: 48 h
How it was run: as §2

Rhizoctonia solani (Rs) = test: In vitro pathogen growth inhibition assay, Rs (mycelial plugs); settings: Rhizoctonia solani, 48 h
How it was run: as §2

Septoria tritici (St) = test: In vitro pathogen growth inhibition assay, St; settings: Zymoseptoria tritici, 48 h
How it was run: as §1

[5] = ≥90% growth inhibition, 48 hours, vs 2% DMSO control, read-out: Compound Concentration (ppm) sufficient for ≥90% inhibition of Bc
[6] = ≥90% growth inhibition, 48 hours, vs 2% DMSO control, read-out: Compound Concentration (ppm) sufficient for ≥90% inhibition of Cg
[7] = ≥90% growth inhibition, 48 hours, vs 2% DMSO control, read-out: Compound Concentration (ppm) sufficient for ≥90% inhibition of Dm
[8] = ≥90% growth inhibition, 48 hours, vs 2% DMSO control, read-out: Compound Concentration (ppm) sufficient for ≥90% inhibition of Fm
[9] = ≥90% growth inhibition, 48 hours, vs 2% DMSO control, read-out: Compound Concentration (ppm) sufficient for ≥90% inhibition of Fv
[10] = ≥90% growth inhibition, 48 hours, vs 2% DMSO control, read-out: Compound Concentration (ppm) sufficient for ≥90% inhibition of Pc
[11] = ≥90% growth inhibition, mycelial plugs, 48 hours, vs 2% DMSO control, read-out: Compound Concentration (ppm) sufficient for ≥90% inhibition of Rs
[12] = ≥90% growth inhibition, 48 hours, vs 2% DMSO control, read-out: Compound Concentration (ppm) sufficient for ≥90% inhibition of St
[13] = concentration sufficient to ≥90% inhibition of growth, 48 hours vs 2% DMSO control, read-out: Compound Concentration (ppm) for ≥90% inhibition, Bc
[14] = concentration sufficient to ≥90% inhibition of growth, 48 hours vs 2% DMSO control, read-out: Compound Concentration (ppm) for ≥90% inhibition, Cg
[15] = concentration sufficient to ≥90% inhibition of growth, 48 hours vs 2% DMSO control, read-out: Compound Concentration (ppm) for ≥90% inhibition, Dm
[16] = concentration sufficient to ≥90% inhibition of growth, 48 hours vs 2% DMSO control, read-out: Compound Concentration (ppm) for ≥90% inhibition, Fm
[17] = concentration sufficient to ≥90% inhibition of growth, 48 hours vs 2% DMSO control, read-out: Compound Concentration (ppm) for ≥90% inhibition, Fv
[18] = concentration sufficient to ≥90% inhibition of growth, 48 hours vs 2% DMSO control, read-out: Compound Concentration (ppm) for ≥90% inhibition, Pc
[19] = concentration sufficient to ≥90% inhibition of growth, 48 hours vs 2% DMSO control, read-out: Compound Concentration (ppm) for ≥90% inhibition, Rs
[20] = concentration sufficient to ≥90% inhibition of growth, 48 hours vs 2% DMSO control, read-out: Compound Concentration (ppm) for ≥90% inhibition, St

Row | IC90 (Botrtyis cinerea (Bc); [5]) [µg/mL] | IC90 [1, 6] [µg/mL] | IC90 (Diplodia maydis (Dm); [7]) [µg/mL] | IC90 [2, 8] [µg/mL] | IC90 [3, 9] [µg/mL] | IC90 [4, 10] [µg/mL] | IC90 (Rhizoctonia solani (Rs); [11]) [µg/mL] | IC90 (Septoria tritici (St); [12]) [µg/mL] | IC90 (Botrtyis cinerea (Bc); [13]) [µg/mL] | IC90 [1, 14] [µg/mL] | IC90 (Diplodia maydis (Dm); [15]) [µg/mL] | IC90 [2, 16] [µg/mL] | IC90 [3, 17] [µg/mL] | IC90 [4, 18] [µg/mL] | IC90 (Rhizoctonia solani (Rs); [19]) [µg/mL] | IC90 (Septoria tritici (St); [20]) [µg/mL] | SMILES
1 | 10 (≈ 16.6 µM) | 50 (≈ 83.1 µM) | ≥ 10 | 2 (≈ 3.32 µM) | 2 (≈ 3.32 µM) | > 50 | 10 (≈ 16.6 µM) | > 50 | – | – | – | – | – | – | – | – | COCCO[C@@H](Cn1c(=O)n(C(C)(C)C(=O)NC(C)C)c(=O)c2c(C)c(-n3cccn3)sc21)c1cc(F)ccc1OC [Compound I-163]
2 | 50 (≈ 81.3 µM) | 10 (≈ 16.3 µM) | 10 (≈ 16.3 µM) | 2 (≈ 3.25 µM) | 2 (≈ 3.25 µM) | > 50 | 50 (≈ 81.3 µM) | > 50 | – | – | – | – | – | – | – | – | COCCO[C@@H](Cn1c(=O)n(C(C)(C)C(=O)N2CCCC2)c(=O)c2c(C)c(-n3nccn3)sc21)c1cc(F)ccc1OC [Compound I-164]
3 | 2 (≈ 3.58 µM) | 2 (≈ 3.58 µM) | 2 (≈ 3.58 µM) | ≥ 0.08 | 2 (≈ 3.58 µM) | > 50 | 2 (≈ 3.58 µM) | > 50 | – | – | – | – | – | – | – | – | COc1ccc(F)cc1[C@H](Cn1c(=O)n(C(C)(C)C(N)=O)c(=O)c2c(C)c(-n3nccn3)sc21)OCC(C)C [Compound I-165]
4 | 2 (≈ 3.06 µM) | 2 (≈ 3.06 µM) | ≥ 2 | ≥ 0.08 | 2 (≈ 3.06 µM) | > 50 | 10 (≈ 15.3 µM) | ≥ 50 | – | – | – | – | – | – | – | – | COc1ccc(F)cc1[C@H](Cn1c(=O)n(C(C)(C)C(=O)N2CCCCC2)c(=O)c2c(C)c(-n3cccn3)sc21)OC1CCOCC1 [Compound I-166]
5 | 2 (≈ 3.25 µM) | ≥ 0.4 | 2 (≈ 3.25 µM) | ≥ 0.08 | 2 (≈ 3.25 µM) | 50 (≈ 81.3 µM) | ≥ 0.4 | > 50 | – | – | – | – | – | – | – | – | COc1ccc(F)cc1[C@H](Cn1c(=O)n(C(C)(C)C(=O)N2CCCC2)c(=O)c2c(C)c(-n3nccn3)sc21)OC[C@@H](C)O [Compound I-167]
6 | 10 (≈ 16.7 µM) | ≥ 50 | 50 (≈ 83.7 µM) | ≥ 2 | > 50 | > 50 | 50 (≈ 83.7 µM) | > 50 | – | – | – | – | – | – | – | – | COc1ccc(F)cc1[C@H](Cn1c(=O)n(C(C)(C)C(N)=O)c(=O)c2c(C)c(-n3cccn3)sc21)OC1CCC(=O)CC1 [Compound I-170]
7 | 2 (≈ 3.4 µM) | 50 (≈ 84.9 µM) | 10 (≈ 17 µM) | 2 (≈ 3.4 µM) | 50 (≈ 84.9 µM) | > 50 | 10 (≈ 17 µM) | > 50 | – | – | – | – | – | – | – | – | COCCO[C@@H](Cn1c(=O)n([C@@H](C)C(=O)NC(C)C)c(=O)c2c(C)c(-n3nccn3)sc21)c1cc(F)ccc1OC [Compound I-172]
8 | – | – | – | – | – | – | – | – | 50 (≈ 81.2 µM) | ≥ 50 | > 50 | 50 (≈ 81.2 µM) | > 50 | > 50 | 10 (≈ 16.2 µM) | > 50 | COc1ccc(F)cc1[C@H](Cn1c(=O)n(C(C)(C)C(=O)NC(C)C)c(=O)c2c(C)c(-n3nccn3)sc21)OCCN(C)C [Compound I-173]
9 | – | – | – | – | – | – | – | – | 10 (≈ 17.4 µM) | 50 (≈ 87.2 µM) | 10 (≈ 17.4 µM) | 10 (≈ 17.4 µM) | 10 (≈ 17.4 µM) | > 50 | 50 (≈ 87.2 µM) | > 50 | CCOC(=O)c1sc2c(c1C)c(=O)n(C(C)(C)C(N)=O)c(=O)n2C[C@H](OC1CCOCC1)c1ccccc1OC [Compound I-174]
10 | – | – | – | – | – | – | – | – | 2 (≈ 3.32 µM) | 50 (≈ 83.1 µM) | 10 (≈ 16.6 µM) | 10 (≈ 16.6 µM) | 10 (≈ 16.6 µM) | > 50 | > 50 | > 50 | CCNC(=O)C(C)(C)n1c(=O)c2c(C)c(C(=O)OCC)sc2n(C[C@H](OC2CCOCC2)c2ccccc2OC)c1=O [Compound I-175]
